Like-named read-outs stand apart in the source and are kept apart here.
Columns and labels:
SIRT2 = tested on: SIRT2; design: method as in ref 22, 27 and unpublished results; conditions: 27 and unpublished results, cited from earlier work; for IC50: read-out: IC50 against human SIRT2
[1] = Host cell cytotoxicity in high content assay; conditions: human
TcSir2rp3 = TcSir2rp3 (Trypanosoma cruzi, UniProt Q4E5B9); test: biochemical; conditions: for inhibition at 5 µM: read-out: % of inhibition of TcSir2rp3 deacetylase activity
TcSir2rp1 = TcSir2rp1 (Trypanosoma cruzi, UniProt Q4DP02); test: biochemical; format: biochemical; conditions: for inhibition of TcSir2rp1 deacetylase activity: 5 µM
T. cruzi Y H10 strain [2] = test: High content assay (HCA), T. cruzi in vitro infection of U2OS cells; format: cell-based, Trypanosoma cruzi; conditions: for EC50: read-out: EC50 Value (reduces 50% of infected cells number); for SI (selectivity index = CC50/EC50): U2OS CC50 / T. cruzi EC50
T. cruzi Y H10 strain [3] = test: Combinatory high content assay of SIRTi with BZN, T. cruzi in vitro infection; format: cell-based, Trypanosoma cruzi; conditions: for combinatory effect with benznidazole, overall: combination with BZN; for trypanocidal activity of SIRTi+BZN compared to BZN alone / trypanocidal activity of SIRTi+BZN compared to SIRTi alone: combination with BZN at constant EC50 ratios
SIRT1 = tested on: SIRT1; design: method as in ref 22, 27 and unpublished results; conditions: 27 and unpublished results, cited from earlier work; for IC50: read-out: IC50 against human SIRT1
SIRT5 = tested on: SIRT5; design: method as in ref 27 and unpublished results; conditions: ref 27 and unpublished results; cited from earlier work
[4] = U2OS cells infected with T. cruzi Y H10 trypomastigotes
[5] = Trypanosoma cruzi, U2OS, 96 h, U2OS cells infected with T. cruzi, 96 hours incubation
[6] = Ratio 1, EC50 ratio 1/32 (BZN 0.8 µM)
[7] = Ratio 2, EC50 ratio 1/16 (BZN 1.5 µM)
[8] = Ratio 3, EC50 ratio 1/8 (BZN 3 µM)
[9] = Ratio 4, EC50 ratio 1/4 (BZN 6 µM)
[10] = Ratio 5, EC50 ratio 1/2 (BZN 12 µM)
[11] = Ratio 6, EC50 ratio 1 (BZN 24 µM)
[12] = Ratio 7, EC50 ratio 2 (BZN 48 µM)

TcSir2rp3, sequence (Q4E5B9 entry or part of it): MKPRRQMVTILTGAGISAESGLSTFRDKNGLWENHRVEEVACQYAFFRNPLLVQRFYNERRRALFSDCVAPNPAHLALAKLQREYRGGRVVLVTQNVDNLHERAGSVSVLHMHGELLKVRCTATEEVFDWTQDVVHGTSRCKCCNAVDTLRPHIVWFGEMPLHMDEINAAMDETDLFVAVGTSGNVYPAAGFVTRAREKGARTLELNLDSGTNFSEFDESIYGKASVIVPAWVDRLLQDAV
TcSir2rp1, sequence (Q4DP02 entry or part of it): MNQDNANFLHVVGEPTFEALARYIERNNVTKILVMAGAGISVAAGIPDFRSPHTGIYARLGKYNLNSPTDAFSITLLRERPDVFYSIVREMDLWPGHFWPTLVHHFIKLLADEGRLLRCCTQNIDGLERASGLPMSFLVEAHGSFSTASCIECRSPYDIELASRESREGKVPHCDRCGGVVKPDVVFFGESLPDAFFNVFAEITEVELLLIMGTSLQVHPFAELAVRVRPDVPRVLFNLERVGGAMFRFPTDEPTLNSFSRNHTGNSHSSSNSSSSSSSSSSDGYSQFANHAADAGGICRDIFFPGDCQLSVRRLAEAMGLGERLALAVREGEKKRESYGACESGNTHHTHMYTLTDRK

SMILES	IC50 (SIRT2) [µM]	CC50 at 96 h [1, 4] [µM]	inhibition of TcSir2rp1 deacetylase activity (TcSir2rp1)	EC50 (T. cruzi Y H10 strain [2]; [5]) [µM]	SI (selectivity index = CC50/EC50) (T. cruzi Y H10 strain [2])	IC50 against human SIRT2 (SIRT2)	inhibition at 5 µM (TcSir2rp3) [%]	IC50 (TcSir2rp3; read-out: TcSir2rp3 IC50 ± SD) [µM]	combinatory effect with benznidazole, overall (T. cruzi Y H10 strain [3])	trypanocidal activity of SIRTi+BZN compared to BZN alone (T. cruzi Y H10 strain [3])	IC50 (SIRT1) [µM]	EC50 (T. cruzi Y H10 strain [2]; Trypanosoma cruzi, U2OS, 96 h) [µM]	other results
CCOC(=O)/C(=C\c1cc(C(=O)c2ccccc2OC)c[nH]1)C(=O)Nc1cccc2ncccc12 [Compound 27]	10.5	46.9	did not show potent inhibitory effect	5.73	8.18	–	–	–	–	–	–	–	% of inhibition of TcSir2rp3 deacetylase activity (TcSir2rp3; 5 µM): did not show potent inhibitory effect
O=c1[nH]c(SCc2ccc3ccccc3c2)nc(-c2ccccc2)c1Cc1c(O)ccc2ccccc12 [Compound 12]	6.3	48.8	–	35.4	1.38	single-digit micromolar	> 30	14.3 ± 6.06	low or no synergism	no difference	> 150	–	type of interaction with BZN (T. cruzi Y H10 strain [3]; 1/4 ratio): synergistic effect; CI (combinatory index) with BZN (T. cruzi Y H10 strain [3]; [6]): 6.6; CI (combinatory index) with BZN (T. cruzi Y H10 strain [3]; [7]): 13.2; CI (combinatory index) with BZN (T. cruzi Y H10 strain [3]; [8]): 1.02; CI (combinatory index) with BZN (T. cruzi Y H10 strain [3]; [9]): 0.82; CI (combinatory index) with BZN (T. cruzi Y H10 strain [3]; [10]): 1.14; CI (combinatory index) with BZN (T. cruzi Y H10 strain [3]; [11]): 1.48; CI (combinatory index) with BZN (T. cruzi Y H10 strain [3]; [12]): 2.29; type of interaction with BZN (T. cruzi Y H10 strain [3]; ratios 1/8, 1/2 and 1/1): additive effect; type of interaction with BZN (T. cruzi Y H10 strain [3]; ratios lower than 1/8): antagonistic effect
CCN1C(=O)/C(=C\c2ccc(-c3ccc(Cl)c(Cl)c3)o2)C(=O)NC1=S [Compound 30]	–	–	–	–	–	single-digit micromolar	> 30	–	–	–	–	42.7	CC50 at 96 h [1]: > 100 µM; IC50 against human SIRT5 (SIRT5): single-digit micromolar; IC50 against human SIRT1 (SIRT1): single-digit micromolar
CCCN1C(=O)/C(=C\c2ccc(-c3ccc(Cl)c(Cl)c3)o2)C(=O)NC1=S [Compound 31]	–	–	–	–	–	–	–	–	–	–	–	–	IC50 (TcSir2rp3): 16.3 ± 9.54 µM
O=c1[nH]c(N/N=C/c2ccc([N+](=O)[O-])cc2)nc(-c2ccccc2)c1Cc1c(O)ccc2ccccc12 [Compound 17]	~50	19.6	inhibited TcSir2rp1 activity	8.5	2.31	–	–	–	synergistic effects	no increase in trypanocidal activity	~50	–	IC50 (TcSir2rp1): 25.5 ± 4.73 µM; CI (combinatory index) with BZN (T. cruzi Y H10 strain [3]; [6]): 0.38; CI (combinatory index) with BZN (T. cruzi Y H10 strain [3]; [7]): 0.69; CI (combinatory index) with BZN (T. cruzi Y H10 strain [3]; [8]): 0.73; CI (combinatory index) with BZN (T. cruzi Y H10 strain [3]; [9]): 0.74; CI (combinatory index) with BZN (T. cruzi Y H10 strain [3]; [10]): 1.25; CI (combinatory index) with BZN (T. cruzi Y H10 strain [3]; [11]): 2.45; CI (combinatory index) with BZN (T. cruzi Y H10 strain [3]; [12]): 3.52; trypanocidal activity of SIRTi+BZN compared to SIRTi alone (T. cruzi Y H10 strain [3]): increase in the trypanocidal activity; type of interaction with BZN (T. cruzi Y H10 strain [3]; ratios 1/2, 1, and 2): antagonistic effect; type of interaction with BZN (T. cruzi Y H10 strain [3]; ratios lower than 1/4): tendency towards a synergistic effect
O=C(Cn1ccnc1[N+](=O)[O-])NCc1ccccc1 [BZN, benznidazole, reference compound]	–	> 200	–	–	> 102	–	–	–	–	–	–	1.96	–
C=CCN1C(=O)/C(=C\c2ccc(-c3ccc(Cl)c(Cl)c3)o2)C(=O)NC1=S [Compound 32]	–	–	–	–	–	single-digit micromolar	> 30	–	synergistic effects	not if compared to BZN alone	–	39.8	CC50 at 96 h [1]: 77 µM; IC50 (TcSir2rp3): 16.4 ± 6.7 µM; IC50 against human SIRT5 (SIRT5): single-digit micromolar; type of interaction with BZN (T. cruzi Y H10 strain [3]; all concentration ratios lower than 1/2): synergistic effect; trypanocidal activity of SIRTi+BZN compared to SIRTi alone (T. cruzi Y H10 strain [3]): increased the trypanocidal activity; IC50 against human SIRT1 (SIRT1): single-digit micromolar
CC(CSc1cccc(/N=C/c2c(O)ccc3ccccc23)c1)c1ccccc1 (stereo not shown) [Compound 8]	~20	76.8	–	40.6	1.89	–	> 30	18.8 ± 5.34	–	–	~40	–	–
CCCCCSc1nc(-c2ccccc2)c(Cc2c(O)ccc3ccccc23)c(=O)[nH]1 [Compound 15]	–	36.4	inhibited TcSir2rp1 activity	19.4	1.89	single-digit micromolar	–	–	–	–	> 150	–	IC50 (TcSir2rp1): 32.4 ± 7.88 µM; EC50 (T. cruzi Y H10 strain [2]; U2OS cells infected with T. cruzi, 96 hours incubation): 19.4 µM
O=C(CSc1nc(-c2ccccc2)c(Cc2c(O)ccc3ccccc23)c(=O)[nH]1)c1ccccc1 [Compound 13]	–	> 100	–	45.1	> 2.2	single-digit micromolar	> 30	18.5 ± 1.97	–	–	> 150	–	–
